Calls of active or inactive are those of the source. No cut-off for these calls is given here.
Legend:
[1] = biological target: T1, Putative agmatine deiminase (Streptococcus mutans serotype c (strain ATCC 700610 / UA159), UniProt Q8DW17); assay: Inhibition of Streptococcus mutans agmatine deiminase expressed in Escherichia coli pre-incubated for 15 mins before agmatine substrate addition
T1 sequence (Q8DW17 whole entry): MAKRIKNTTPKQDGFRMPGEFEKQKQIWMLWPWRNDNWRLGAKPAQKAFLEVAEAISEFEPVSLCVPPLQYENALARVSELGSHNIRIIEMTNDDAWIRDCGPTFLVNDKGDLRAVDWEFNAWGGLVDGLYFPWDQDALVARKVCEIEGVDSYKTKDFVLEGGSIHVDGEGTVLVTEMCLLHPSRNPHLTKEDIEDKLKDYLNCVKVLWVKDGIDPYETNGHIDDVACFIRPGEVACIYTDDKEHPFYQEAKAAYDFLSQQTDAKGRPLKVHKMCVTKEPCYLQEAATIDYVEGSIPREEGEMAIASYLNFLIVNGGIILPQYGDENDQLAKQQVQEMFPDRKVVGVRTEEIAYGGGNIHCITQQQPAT

[2] = biological target: T2, Putative agmatine deiminase (Streptococcus mutans serotype c (strain ATCC 700610 / UA159)) (UniProt Q8DW17); assay: Binding affinity to Streptococcus mutans agmatine deiminase in presence of Escherichia coli cell lysates assessed as enzyme photo labeling at 10 uM after 45 mins by coomassie blue staining based gel electrophoresis method
T2 sequence (whole entry): T1 sequence (Q8DW17 whole entry)

[3] = biological target: T2, Putative agmatine deiminase (Streptococcus mutans serotype c (strain ATCC 700610 / UA159)); assay: Binding affinity to Streptococcus mutans agmatine deiminase expressed in Escherichia coli assessed as enzyme photo labeling at 10 uM pre-treated with 10 uM ABCA for 45 mins by coomassie blue staining based gel electrophoresis method
[4] = biological target: T2, Putative agmatine deiminase (Streptococcus mutans serotype c (strain ATCC 700610 / UA159)); assay: Binding affinity to Streptococcus mutans agmatine deiminase expressed in Escherichia coli assessed as enzyme level detected by compound at 10 uM after 45 mins by coomassie blue staining based gel electrophoresis method
[5] = biological target: T2, Putative agmatine deiminase (Streptococcus mutans serotype c (strain ATCC 700610 / UA159)); assay: Binding affinity to Streptococcus mutans agmatine deiminase in presence of Escherichia coli cell lysates assessed as enzyme level detected by compound at 10 uM after 45 mins by coomassie blue staining based gel electrophoresis method
[6] = biological target: T2, Putative agmatine deiminase (Streptococcus mutans serotype c (strain ATCC 700610 / UA159)); assay: Binding affinity to Streptococcus mutans agmatine deiminase expressed in Escherichia coli assessed as enzyme photo labeling at 2 to 10 uM after 45 mins by coomassie blue staining based SDS-PAGE method
[7] = biological target: T2, Putative agmatine deiminase (Streptococcus mutans serotype c (strain ATCC 700610 / UA159)); assay: Binding affinity to Streptococcus mutans agmatine deiminase expressed in Escherichia coli assessed as enzyme photo labeling at 2 to 10 uM by coomassie blue staining based gel electrophoresis method
[8] = biological target: T2, Putative agmatine deiminase (Streptococcus mutans serotype c (strain ATCC 700610 / UA159)); assay: Binding affinity to Streptococcus mutans agmatine deiminase expressed in Escherichia coli assessed as enzyme photo labeling at 10 uM after 45 mins by coomassie blue staining based gel electrophoresis method

## N=C(CCl)NCCCCN
[1]
  IC50: 0.26 µM

## N=C(CCl)NCCCCNCCCCCNC(=S)Nc1ccc(-c2c3ccc(=O)cc-3oc3cc(O)ccc23)c(C(=O)O)c1
[1]
  IC50: 10.6 µM
[2]
  Activity: Active
[3]
  Activity: inactive
[4]
  Activity: 1 pmol
[5]
  Activity: 0.5 pmol
[6]
  Activity: Active
[7]
  Activity: Active
[8]
  Activity: Active

— ChEMBL document CHEMBL3351330, “Design, synthesis, and in vitro evaluation of an activity-based protein profiling (ABPP) probe targeting agmatine deiminases” (Bioorg Med Chem, 2014)
